Measured values reported in PMC11480511 (Scientific Reports, 2024).

Experiments:
HL-60(TB) = test: NCI single-dose growth inhibition screen; assay type: cell-based; details: Homo sapiens; Leukemia HL-60(TB); single dose 10^−5 M
K-562 = test: NCI single-dose growth inhibition screen; assay type: cell-based; details: Homo sapiens, K562; Leukemia K-562; single dose 10^−5 M
MOLT-4 = test: NCI single-dose growth inhibition screen; assay type: cell-based; details: Homo sapiens; Leukemia MOLT-4; single dose 10^−5 M
RPMI-8226 = test: NCI single-dose growth inhibition screen; assay type: cell-based; details: Homo sapiens; Leukemia RPMI-8226; single dose 10^−5 M
A549/ATCC = test: NCI single-dose growth inhibition screen; assay type: cell-based; details: Homo sapiens; Non-Small Cell Lung Cancer A549/ATCC; single dose 10^−5 M
EKVX = test: NCI single-dose growth inhibition screen; assay type: cell-based; details: Homo sapiens; Non-Small Cell Lung Cancer EKVX; single dose 10^−5 M
HOP-62 = test: NCI single-dose growth inhibition screen; assay type: cell-based; details: Homo sapiens; Non-Small Cell Lung Cancer HOP-62; single dose 10^−5 M
HOP-92 = test: NCI single-dose growth inhibition screen; assay type: cell-based; details: Homo sapiens; Non-Small Cell Lung Cancer HOP-92; single dose 10^−5 M
NCI-H322M = test: NCI single-dose growth inhibition screen; assay type: cell-based; details: Homo sapiens; Non-Small Cell Lung Cancer NCI-H322M; single dose 10^−5 M
NCI-H460 = test: NCI single-dose growth inhibition screen; assay type: cell-based; details: Homo sapiens; Non-Small Cell Lung Cancer NCI-H460; single dose 10^−5 M
SF-539 = test: NCI single-dose growth inhibition screen; assay type: cell-based; details: Homo sapiens; CNS Cancer SF-539; single dose 10^−5 M
SNB-19 = test: NCI single-dose growth inhibition screen; assay type: cell-based; details: Homo sapiens; CNS Cancer SNB-19; single dose 10^−5 M
SNB-75 = test: NCI single-dose growth inhibition screen; assay type: cell-based, human; details: single dose 10^−5 M; for inhibition at 10 µM: Homo sapiens, SNB-75, CNS Cancer SNB-75
LOX IMVI = test: NCI single-dose growth inhibition screen; assay type: cell-based, human; details: Melanoma LOX IMVI, single dose 10^−5 M; for inhibition at 10 µM: Homo sapiens, LOX IMVI
M14 = test: NCI single-dose growth inhibition screen; assay type: cell-based; details: Homo sapiens; Melanoma M14; single dose 10^−5 M
Procedure: Following the guidelines established by the drug evaluation department of the National Cancer Institute (NCI), USA, all target compounds 3a–l were examined against 60 cancer cell lines at a single concentration of 10 µM.
The anti-cancer potential of the tested compounds was evaluated at the National cancer institute (NCI), USA, against 9 panels of 60 various cell lines derived from nine human tumours available usually at NCI library. The procedures for the screening were described in details in NCI website (dttp://www.dtp.nci.nih.gov.) and were done according to NCI protocols[60] . The anticancer screening was carried out at single dose of 10^−5 M, NCI, Bethesda, USA. The results obtained as growth inhibition (%).

UACC-257 = test: NCI single-dose growth inhibition screen; assay type: cell-based; details: Homo sapiens; Melanoma UACC-257; single dose 10^−5 M
UACC-62 = test: NCI single-dose growth inhibition screen; assay type: cell-based; details: Homo sapiens; Melanoma UACC-62; single dose 10^−5 M
IGROV1 = test: NCI single-dose growth inhibition screen; assay type: cell-based; details: Homo sapiens, IGROV-1; Ovarian Cancer IGROV1; single dose 10^−5 M
OVCAR-8 = test: NCI single-dose growth inhibition screen; assay type: cell-based; details: Homo sapiens; Ovarian Cancer OVCAR-8; single dose 10^−5 M
A498 = test: NCI single-dose growth inhibition screen; assay type: cell-based, human; details: single dose 10^−5 M; for inhibition at 10 µM: Homo sapiens, A498, Renal Cancer A498
UO-31 = test: NCI single-dose growth inhibition screen; assay type: cell-based, human; details: single dose 10^−5 M; for inhibition at 10 µM: Homo sapiens, UO-31, Renal Cancer UO-31
MCF7 = test: NCI single-dose growth inhibition screen; assay type: cell-based, human; details: Homo sapiens, MCF7, Breast Cancer MCF7; single dose 10^−5 M
BT-549 = test: NCI single-dose growth inhibition screen; assay type: cell-based; details: Homo sapiens; Breast Cancer BT-549; single dose 10^−5 M
T-47D = test: NCI single-dose growth inhibition screen; assay type: cell-based; details: Homo sapiens, T47D; Breast Cancer T-47D; single dose 10^−5 M
PC-3 = test: NCI single-dose growth inhibition screen; assay type: cell-based; details: Homo sapiens; Prostate Cancer PC-3; single dose 10^−5 M
DU-145 = test: NCI single-dose growth inhibition screen; assay type: cell-based; details: Homo sapiens; Prostate Cancer DU-145; single dose 10^−5 M
S. aureus ATCC 6538 = test: Antibacterial screening, agar cup diffusion method; assay type: cell-based; details: Staphylococcus aureus, ATCC6538; Gram + ve strain; read-out: Minimum inhibitory concentrations (MIC, µM) S. aureus ATCC 6538
Procedure: (§1) Anti-bacterial activity of the recently synthesized compounds 3a-k was evaluated at AUMC (Assiut University Mycological Centre), Assiut, Egypt. Assays were done against Gram-negative strains of K. pneumoniae (ATCC 100310, E. coli (ATCC 25922), Pseudomonas aeruginosa (ATCC 27853) and the Gram-positive S. aureus (ATCC 6538) strain utilizing standard agar cup diffusion method. The isolates from the four bacterial species examined were kept in TSB (Trypticase Soya Broth, Becton and Dickinson) with 10% glycerol at -70 °C and then subcultured on TSA (Trypticase Soya Agar, Becton and Dickinson) and TSB for 24 h at 37 °C former to inoculation. Bacterial isolates were then plated on sterile petri plates with 1 × 10^8 CFU/mL (0.5 McFarland turbidity) and 20 mL of Mueller Hinton Agar media (Oxoid) was then loaded. To ensure that the microorganisms were evenly dispersed, the plates were gently rotated before being left to harden on a level surface. Four equally spaced spherical-shaped wells (10 mm diameter) were painstakingly drilled using a sterilized cork bore after media solidification. All tested compounds under test underwent two-fold serial dilutions in a sequential manner. Three replications of 100 µL of each concentration were added to a well using a micropipette. Plates were then incubated for 24-hour at 37 °C. The average of the inhibition zones was then calculated. To determine the MICs, the natural logarithm of each diluted test substance’s concentration was plotted against the average area of the related inhibition zone. Following that, a regression line was created and the intercept on the ‘ln concentration” axis was determined, and the antilogarithm was calculated to indicate the MIC value[34],[63].

[1] = tested on: P. aeruginosa ATCC 27,853; test: Antibacterial screening, agar cup diffusion method; assay type: cell-based; details: Pseudomonas aeruginosa, ATCC27; Gram –ve strain; read-out: Minimum inhibitory concentrations (MIC, µM) P. aeruginosa ATCC 27,853
Procedure: as §1

human melanoma LOX IMVI = test: cells
[2] = tested on: A498 renal cancer cell line; test: cells; details: Homo sapiens
NCI-H522 = test: NCI single-dose growth inhibition screen; assay type: cell-based; details: Homo sapiens; Non-Small Cell Lung Cancer NCI-H522; single dose 10^−5 M
HS 578T = test: NCI single-dose growth inhibition screen; assay type: cell-based; details: Homo sapiens; Breast Cancer HS 578T; single dose 10^−5 M

For O=C(O)c1cn(C2CC2)c2cc(N3CCN(C(=O)CCCN4C(=O)CSC4=O)CC3)c(F)cc2c1=O [3 L, 1-Cyclopropyl-7-(4-(4-(2,4-dioxothiazolidin-3-yl)butanoyl)piperazin-1-yl)-6-fluoro-4-oxo-1,4-dihydroquinoline-3-carboxylic acid], the inhibition at 10 µM (HL-60(TB)) was less than 0%, the inhibition at 10 µM (K-562) was less than 0% and the inhibition at 10 µM (MOLT-4) was less than 0%. For the same compound, the inhibition at 10 µM (RPMI-8226) was 6%, the inhibition at 10 µM (A549/ATCC) was 6.7% and the inhibition at 10 µM (EKVX) was 23.8%. For the same compound, the inhibition at 10 µM (HOP-62) was 16.8%, the inhibition at 10 µM (HOP-92) was 0.7% and the inhibition at 10 µM (NCI-H322M) was 0%. The inhibition at 10 µM (NCI-H460) was 0%, the inhibition at 10 µM (SF-539) was 3.3% and the inhibition at 10 µM (SNB-19) was 0%. The “Growth Inhibition (%)” value (SNB-75; CNS Cancer SNB-75) was 51.1%, the inhibition at 10 µM (SNB-75) was 51.1% and the inhibition at 10 µM (LOX IMVI) was 0%. The “Growth Inhibition (%)” value (LOX IMVI) was “- (- means no detected activity)”, the inhibition at 10 µM (M14) was less than 0% and the inhibition at 10 µM (UACC-257) was less than 0%. It also gave an inhibition at 10 µM (UACC-62) of 8.4%, an inhibition at 10 µM (IGROV1) of 15.3% and an inhibition at 10 µM (OVCAR-8) of less than 0%. The inhibition at 10 µM (A498) was 45.1%, the “Growth Inhibition (%)” value (A498; Renal Cancer A498) was 45.1% and the inhibition at 10 µM (UO-31) was 42%. The “Growth Inhibition (%)” value (UO-31; Renal Cancer UO-31) was 41.0%, the inhibition at 10 µM (MCF7) was less than 0% and the inhibition at 10 µM (BT-549) was 4.8%. For the same compound, the inhibition at 10 µM (T-47D) was less than 0%, the inhibition at 10 µM (PC-3) was 2.4% and the inhibition at 10 µM (DU-145) was 8.3%. The MIC (S. aureus ATCC 6538) was greater than 20 µM, the MIC [1] was greater than 20 µM and the viability at 0.4 µM (human melanoma LOX IMVI) was 84.8%. For the same compound, the viability at 1.6 µM (human melanoma LOX IMVI) was 78.9%, the viability at 25 µM (human melanoma LOX IMVI) was 59.8% and the viability at 100 µM (human melanoma LOX IMVI) was 49.1%. For the same compound, the IC50 (human melanoma LOX IMVI; read-out: In vitro cytotoxicity (IC50) LOX IMVI (µM ± SEM)) was 109 ± 6.15 µM, the viability at 0.4 µM ([2]; A498) was 92.2% and the viability at 1.6 µM ([2]; A498) was 80.2%. For the same compound, the viability at 25 µM ([2]; A498) was 59.6%, the viability at 100 µM ([2]; A498) was 49.1% and the IC50 ([2]; A498, read-out: In vitro cytotoxicity (IC50) A498 cell line (µM ± SEM)) was 80.7 ± 4.55 µM.

For COc1cc(/C=C2\SC(=O)N(CCCC(=O)N3CCN(c4cc5c(cc4F)c(=O)c(C(=O)O)cn5C4CC4)CC3)C2=O)cc(OC)c1OC [3 g], the inhibition at 10 µM (HL-60(TB)) was less than 0%, the inhibition at 10 µM (K-562) was less than 0% and the inhibition at 10 µM (MOLT-4) was less than 0%. For the same compound, the inhibition at 10 µM (RPMI-8226) was less than 0%, the inhibition at 10 µM (A549/ATCC) was 3.5% and the inhibition at 10 µM (EKVX) was less than 0%. For the same compound, the inhibition at 10 µM (HOP-62) was less than 0%, the inhibition at 10 µM (HOP-92) was less than 0% and the inhibition at 10 µM (NCI-H322M) was 5.1%. For the same compound, the inhibition at 10 µM (NCI-H460) was less than 0%, the inhibition at 10 µM (NCI-H522) was 3.3% and the inhibition at 10 µM (SF-539) was 0.5%. It also gave an inhibition at 10 µM (SNB-19) of less than 0%, an inhibition at 10 µM (SNB-75) of 5.9% and an inhibition at 10 µM (LOX IMVI) of 1.8%. The inhibition at 10 µM (M14) was 0.5%, the inhibition at 10 µM (UACC-257) was 6.7% and the inhibition at 10 µM (UACC-62) was 3.7%. The inhibition at 10 µM (IGROV1) was less than 0%, the inhibition at 10 µM (OVCAR-8) was 1.9% and the inhibition at 10 µM (A498) was 2.3%. The inhibition at 10 µM (UO-31) was 1.5%, the inhibition at 10 µM (MCF7) was 3.6% and the inhibition at 10 µM (HS 578T) was 3.2%. For the same compound, the inhibition at 10 µM (BT-549) was less than 0%, the inhibition at 10 µM (T-47D) was less than 0% and the inhibition at 10 µM (PC-3) was less than 0%. The inhibition at 10 µM (DU-145) was less than 0%, the MIC (S. aureus ATCC 6538) was greater than 20 µM and the MIC [1] was greater than 20 µM.
